In PubChem BioAssay (NCI):
Where “and” joins values, the source holds several entries; their conditions need not be identical. Identical values can stand only once.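 Each compound was tested at five concentrations against cells in 96-well plates for 48 hours. Here, GI50 denotes the concentration required for 50% inhibition of growth. TGI marks complete inhibition of growth.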

What was measured:
Test in all cases: growth of human tumour cells (NCI), 48 h
UACC-257 melanoma = tested on: UACC-257 melanoma
786-0 renal = tested on: 786-0 renal
SK-MEL-5 melanoma = tested on: SK-MEL-5 melanoma
UACC-62 melanoma = tested on: UACC-62 melanoma
CCRF-CEM leukemia = tested on: CCRF-CEM leukemia
RXF 393 renal = tested on: RXF 393 renal
A498 renal = tested on: A498 renal
MCF7 breast = tested on: MCF7 breast
NCI-H460 lung = tested on: NCI-H460 lung
MOLT-4 leukemia = tested on: MOLT-4 leukemia

Compound	GI50 (UACC-257 melanoma)	TGI (UACC-257 melanoma)	GI50 (786-0 renal)	TGI (786-0 renal)	GI50 (SK-MEL-5 melanoma)	TGI (SK-MEL-5 melanoma)	GI50 (UACC-62 melanoma)	TGI (UACC-62 melanoma)	GI50 (CCRF-CEM leukemia) [µM]	TGI (CCRF-CEM leukemia) [µM]	GI50 (RXF 393 renal) [µM]	TGI (RXF 393 renal)	GI50 (A498 renal)	TGI (A498 renal)	GI50 (MCF7 breast)	TGI (MCF7 breast)	GI50 (NCI-H460 lung)	TGI (NCI-H460 lung)	GI50 (MOLT-4 leukemia)	TGI (MOLT-4 leukemia)
C=CC(=O)Nc1cccc(Oc2nc(Nc3ccc(N4CCN(C)CC4)cc3)nc3ccsc23)c1	2.6 µM and 1.98 µM	8.59 µM and 3.83 µM	1.3 µM and 2.07 µM	3.25 µM and 4.62 µM	1.64 µM and 1.75 µM	3.05 µM and 3.16 µM	1.59 µM and 1.74 µM	3.17 µM and 3.67 µM	2.6	9.88	1.54	3.31 µM and 4.26 µM	3.51 µM and 0.862 µM	> 10 µM and 9.65 µM	2.22 µM and 1.72 µM	8.96 µM and 4.48 µM	3.26 µM and 3.19 µM	> 10 µM and 12.6 µM	2.53 µM and 1.72 µM	7.08 µM and 5.53 µM
CC(=O)/C=C/c1cn(C(=O)OC(C)(C)C)c2ccc(Br)cc12	> 70.3 µM	> 100 µM	11.8 µM	25.3 µM	13.6 µM	32.9 µM	20.6 µM	> 85.7 µM	1.07	> 100	15.6	37 µM	20.1 µM	39.7 µM	9.71 µM	46.5 µM	17 µM	36.4 µM	41.6 µM	> 100 µM
O=C1NC(=O)C(N2C(=O)c3ccccc3C2=O)CC1O (stereo unspecified)	> 100 µM	> 100 µM	> 100 µM	> 100 µM	–	–	> 100 µM	> 100 µM	> 100	> 100	> 100	> 100 µM	> 100 µM	> 100 µM	> 100 µM	> 100 µM	> 100 µM	> 100 µM	> 100 µM	> 100 µM
OCC1OC(n2cnc3c(N/N=C\c4ccccn4)ncnc32)C(O)C1O (stereo unspecified)	1.24 µM	8.68 µM	0.256 µM	1.01 µM	0.398 µM	2.29 µM	0.866 µM	4.05 µM	0.0338	> 100	0.275	2.45 µM	0.762 µM	> 100 µM	0.122 µM	> 100 µM	0.384 µM	4.53 µM	0.0532 µM	> 100 µM
CC1=C2[C@@H](CC1)[C@]1(C)O[C@@](c3ccccc3)(C[C@H]1OC(=O)CO)[C@H]2OC(=O)/C=C/c1ccccc1	22.6 µM	49.9 µM	5.23 µM	25.6 µM	15.3 µM	29.7 µM	15.3 µM	36 µM	16.9	56.9	0.0388	1.31 µM	0.0966 µM	0.478 µM	8.86 µM	32.1 µM	16 µM	38.2 µM	13 µM	45.1 µM
COc1ccc2cc1Oc1ccc(cc1)C[C@H]1c3c(cc4c(c3Oc3cc5c(cc3OC)CCN(C)[C@@H]5C2)OCO4)CCN1C	0.727 µM	1.46 µM	5.57 µM	12 µM	0.763 µM	1.43 µM	1.81 µM	6.16 µM	1.53	7.77	0.628	1.69 µM	5.93 µM	12.1 µM	1.85 µM	7.4 µM	2.82 µM	9.03 µM	3.92 µM	12.9 µM
O=S(=O)(c1ccc(Cl)cc1)C(Cl)(Cl)Cl	2.1 µM	11.8 µM	0.968 µM	18.1 µM	3.02 µM	12.1 µM	4.75 µM	25 µM	1.62	> 32.6	1.47	8.91 µM	1.15 µM	13 µM	2.72 µM	> 100 µM	3.79 µM	17 µM	0.91 µM	> 44.3 µM
O=C(O)CN1CCN(CC(=O)O)CC(=O)[O][Hg][O]C(=O)C1	15.4 µM	28.7 µM	17.1 µM	32.2 µM	20.5 µM	> 57 µM	18.3 µM	32.4 µM	3.96	32	18.1	32.5 µM	> 100 µM	> 100 µM	20.3 µM	45.1 µM	19.8 µM	> 54.2 µM	9.02 µM	31.9 µM
COc1cc2nc(N3CCCC3)nc(NCCc3ccccc3)c2cc1OC	1.89 µM	3.85 µM	1.71 µM	3.21 µM	1.7 µM	3.15 µM	1.65 µM	3.06 µM	1.44	10.6	1.28	2.76 µM	1.64 µM	3.5 µM	1.17 µM	2.85 µM	1.86 µM	3.54 µM	2.43 µM	7.69 µM
COc1ccc2c(c1)N(CCO)C1=C(C(=O)OC1)C2c1cccc(F)c1 (stereo unspecified)	> 50 µM	> 50 µM	0.644 µM	> 50 µM	0.456 µM	> 11.4 µM	0.203 µM	> 50 µM	0.43	> 50	0.555	> 50 µM	0.157 µM	2.12 µM	0.202 µM	> 50 µM	0.227 µM	> 50 µM	0.538 µM	> 50 µM
O=C1CCC(N2Cc3cc(CNC(=O)C(F)(F)c4ccc(Cl)cc4)ccc3C2=O)C(=O)N1 (stereo unspecified)	> 100 µM	> 100 µM	> 100 µM	> 100 µM	41.6 µM	> 100 µM	> 100 µM	> 100 µM	< 0.0156	–	19	> 100 µM	8.17 µM	> 100 µM	> 100 µM	> 100 µM	> 100 µM	> 100 µM	0.0148 µM	–
CCc1ccc2c(c1)N(CCO)C1=C(C(=O)OC1)C2c1cccc(Br)c1 (stereo unspecified)	0.623 µM	19.6 µM	0.617 µM	14.7 µM	0.256 µM	8.67 µM	0.518 µM	16.7 µM	0.351	15.6	0.216	1.82 µM	0.373 µM	8.84 µM	0.244 µM	1.68 µM	0.397 µM	11.9 µM	0.62 µM	19.3 µM
